The data set deals with de-epithelialized rabbit cornea. Briefly: Overall accumulation of photosensitizer by the rabbit cornea (optical absorption at 755 nm). To be noted: exposure to saline solution for 10, 20 and 30 min; increased with time. The format is in vitro ADME. On the procedure: Eyes of rabbits were de-epithelialised mechanically immediately post mortem. For most studies, 6 rabbits were used, wherein 6 eyes of 6 rabbits were exposed to the bacteriochlorophyll test compound for 10, 20 and 30 minutes (2 eyes for each test) using an eye cap, while the contralateral eyes were left untreated and served as controls. The corneas were removed and the central buttons of 8-mm diameter were punched out with a round trephine and placed onto the outer side of a polymethylmethacrylate cuvette in the area of light beam passage. Absorption spectra were recorded, and optical density (OD) at 600-900 nm (in most cases at 755 nm) was measured using V-570 spectrophotometer (Jam), Japan).
Six eyes of 3 euthanized rabbits were de-epithelialized mechanically immediately post mortem. Five of these eyes were exposed to WST11 in saline (WST11-S solution) for 10, 20 and 30 min, using an eye cap, and the optical absorption at 755 nm of the washed corneas was determined as described in Materials and Methods. One eye served as untreated control.

SMILES strings stand for the structures.

With `CCC1C2=Cc3c(C)c(C(=O)NCCS(=O)(=O)[O-])c4[n]3[Pd][n]3c(c(C)c(C(C)=O)c3=CC(=N2)C1C)=CC1=NC(=C4CC(=O)OC)C(CCC(=O)[O-])C1C.[K+].[K+]` (stereo not shown) [WST11, Palladium 3^1-oxo-15-methoxycarbonylmethyl-rhodobacteriochlorin 13^1-(2-sulfoethyl)amide dipotassium salt], the “optical density of the impregnated corneas at 755 nm” value is recorded as at most 1.71 OD units.

These data come from patent US11058772B2, “(Bacterio)chlorophyll photosensitizers for treatment of eye diseases and disorders” (Yeda Research and Development Co. Ltd., priority 2011, dated 2021).
